Experimental data reported in patent US10537567B2, “Kinase inhibitors for treatment of disease” (BioAxone BioSciences, Inc., priority 2017, dated 2020).

Columns and labels:
ROCK1 [1] = target: T1, ROCK1 (Homo sapiens, UniProt Q13464); assay: Direct filter-binding radiometric kinase assay (Eurofins) at Km ATP; format: biochemical; parameters: purchased Eurofins Testing (Dundee, Scotland, UK)
Description: (§1) ROCK1 and ROCK2 IC50 determinations were made using ATP concentrations at the Km ATP of 70 μM and 15 μM for ROCK1 and ROCK2, respectively.
(§2) For the data shown in Table 4, IC50 inhibition curves were performed at the respective Km for ATP for both ROCK1 and ROCK2. Performing these assays at the Km of ATP gives a better representation of the inhibitory activity. Other comparisons where differing kinases are tested at a single ATP concentration can potentially misrepresent the comparative efficacy since enzyme inhibitory activity tested below the Km for ATP of the enzyme, produces a circumstance where the enzyme is actually not constantly bound with ATP and the reaction velocity becomes sub-optimal.

ROCK2 [2] = target: T2, ROCK2 (Homo sapiens, UniProt O75116); assay: as above; format: biochemical; parameters: purchased Eurofins Testing (Dundee, Scotland, UK); conditions: for ROCK1/ROCK2 (fold difference): IC50 at respective Km ATP
T2 sequence (O75116 whole entry): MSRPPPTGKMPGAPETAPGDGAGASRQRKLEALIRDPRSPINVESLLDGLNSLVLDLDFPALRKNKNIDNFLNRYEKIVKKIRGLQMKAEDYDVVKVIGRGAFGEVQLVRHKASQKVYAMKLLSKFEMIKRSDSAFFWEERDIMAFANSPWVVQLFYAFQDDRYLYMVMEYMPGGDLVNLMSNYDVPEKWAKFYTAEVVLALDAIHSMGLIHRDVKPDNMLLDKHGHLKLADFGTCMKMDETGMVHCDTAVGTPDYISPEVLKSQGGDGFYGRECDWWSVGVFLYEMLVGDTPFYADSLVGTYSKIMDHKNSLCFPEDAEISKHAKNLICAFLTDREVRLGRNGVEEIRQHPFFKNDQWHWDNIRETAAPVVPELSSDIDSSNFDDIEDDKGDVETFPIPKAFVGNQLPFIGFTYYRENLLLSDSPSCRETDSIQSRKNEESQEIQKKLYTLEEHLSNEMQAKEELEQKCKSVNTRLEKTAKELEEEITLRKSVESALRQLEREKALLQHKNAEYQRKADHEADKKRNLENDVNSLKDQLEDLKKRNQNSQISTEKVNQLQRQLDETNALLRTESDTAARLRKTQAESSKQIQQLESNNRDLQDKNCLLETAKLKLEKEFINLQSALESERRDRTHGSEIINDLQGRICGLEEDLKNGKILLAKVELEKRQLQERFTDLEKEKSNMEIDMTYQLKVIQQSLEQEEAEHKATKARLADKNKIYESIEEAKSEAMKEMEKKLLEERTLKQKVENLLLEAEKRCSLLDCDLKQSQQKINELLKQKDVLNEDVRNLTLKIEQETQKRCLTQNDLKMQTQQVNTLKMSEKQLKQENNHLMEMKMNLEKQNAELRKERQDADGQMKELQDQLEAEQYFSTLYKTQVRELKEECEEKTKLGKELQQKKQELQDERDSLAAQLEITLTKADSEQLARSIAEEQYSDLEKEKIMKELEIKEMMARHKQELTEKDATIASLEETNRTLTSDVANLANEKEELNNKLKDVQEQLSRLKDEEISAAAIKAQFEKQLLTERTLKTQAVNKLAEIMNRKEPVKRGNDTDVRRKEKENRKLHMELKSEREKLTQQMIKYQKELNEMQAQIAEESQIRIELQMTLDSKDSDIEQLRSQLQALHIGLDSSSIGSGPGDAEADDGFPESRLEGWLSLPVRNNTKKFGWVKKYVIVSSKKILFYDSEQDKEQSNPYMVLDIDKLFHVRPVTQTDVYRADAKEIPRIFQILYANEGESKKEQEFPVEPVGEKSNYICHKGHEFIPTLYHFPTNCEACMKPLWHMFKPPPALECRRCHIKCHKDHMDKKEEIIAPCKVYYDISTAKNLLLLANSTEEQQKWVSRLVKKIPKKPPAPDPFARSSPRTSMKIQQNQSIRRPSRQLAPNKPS
Description: as §1, §2

PKA = PKA (Homo sapiens, UniProt P17612); assay: Single dose inhibition assay of key AGC class kinases; format: biochemical; conditions: 10 μM API
Description: Molecular modeling and rational drug design were used to create and screen over 50 ROCK inhibitors. These ROCK inhibitors were screened for selectivity for ROCK2 and ability to promote neurite outgrowth. Several lead inhibitors came out of this screen and further screened for inhibition of key AGC class kinases by a single dose inhibition assay performed with 10 μM active pharmaceutical ingredient (API). The lead compound is chiral. […] They have different selectivity for ROCK2 (Table 2) and different off-target profiles (Table 1; FIG. 1).

ROCK1 [3] = target: T1, ROCK1; assay: IC50 determined at 10 μM ATP; format: biochemical; parameters: purchased Eurofins Testing (Dundee, Scotland, UK); conditions: 10 μM ATP (below Km)
Abl = Abl (Homo sapiens, UniProt P00519); assay: Second kinome screen; format: binding
Abl, sequence (P00519 whole entry): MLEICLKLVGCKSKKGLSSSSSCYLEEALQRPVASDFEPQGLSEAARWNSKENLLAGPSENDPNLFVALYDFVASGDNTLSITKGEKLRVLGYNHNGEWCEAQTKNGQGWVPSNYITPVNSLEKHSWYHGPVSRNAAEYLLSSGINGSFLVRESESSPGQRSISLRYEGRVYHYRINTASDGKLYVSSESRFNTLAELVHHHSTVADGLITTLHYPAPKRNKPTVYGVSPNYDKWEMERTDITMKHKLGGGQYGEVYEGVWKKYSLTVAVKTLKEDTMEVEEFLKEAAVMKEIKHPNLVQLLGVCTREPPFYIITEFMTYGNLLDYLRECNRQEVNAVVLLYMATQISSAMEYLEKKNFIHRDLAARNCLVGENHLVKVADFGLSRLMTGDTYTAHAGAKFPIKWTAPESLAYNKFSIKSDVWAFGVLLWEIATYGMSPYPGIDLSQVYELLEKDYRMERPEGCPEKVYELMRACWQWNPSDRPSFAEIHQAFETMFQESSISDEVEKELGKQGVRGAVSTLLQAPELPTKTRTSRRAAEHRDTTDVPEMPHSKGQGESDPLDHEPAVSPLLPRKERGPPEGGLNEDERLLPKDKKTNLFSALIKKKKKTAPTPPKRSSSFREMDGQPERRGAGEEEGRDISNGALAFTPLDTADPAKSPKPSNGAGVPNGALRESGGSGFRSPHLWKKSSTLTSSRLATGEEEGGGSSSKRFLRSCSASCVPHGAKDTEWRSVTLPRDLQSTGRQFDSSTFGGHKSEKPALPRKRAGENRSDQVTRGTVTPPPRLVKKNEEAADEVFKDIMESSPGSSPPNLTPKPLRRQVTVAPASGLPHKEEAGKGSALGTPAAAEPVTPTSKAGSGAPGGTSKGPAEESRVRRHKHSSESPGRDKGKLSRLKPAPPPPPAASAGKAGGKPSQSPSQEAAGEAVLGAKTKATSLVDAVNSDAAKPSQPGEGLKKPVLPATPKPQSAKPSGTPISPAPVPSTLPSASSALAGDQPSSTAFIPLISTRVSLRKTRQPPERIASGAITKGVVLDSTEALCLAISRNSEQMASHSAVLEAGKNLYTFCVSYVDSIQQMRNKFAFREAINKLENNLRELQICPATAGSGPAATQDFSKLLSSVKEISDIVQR
Description: In the kinome screen BA-2017 had fewer off-target hits (Table 1) than BA-1049. […] An interesting hit from the kinome screen was on Abl (Table 1), an oncogene that also regulates many cellular activities, including vascular leakage.

ROCK2 [4] = target: T2, ROCK2; assay: IC50 determined at 10 μM ATP; format: biochemical; parameters: purchased Eurofins Testing (Dundee, Scotland, UK)
Description: The data in Table 2 were obtained at ATP concentration below those corresponding to Km.

[5] = Hyperemia / ocular tolerability testing in Dutch-Belted rabbits; format: in vivo, Dutch-Belted rabbits (Oryctolagus cuniculus)
Description: To test for hyperemia, the rabbit is a standard species used in ocular tolerability studies based upon historical data and FDA requirements. For this study, four (4) Dutch-Belted rabbits (Oryctolagus cuniculus) were manually restrained to facilitate topical dosing followed by ocular examinations, and IOP measurements. Prior to placement on study, each animal underwent an ophthalmic examination (slit-lamp biomicroscopy, indirect ophthalmoscopy). Ocular findings were scored according to a modified McDonald-Shadduck Scoring System. […] Test and control articles were dosed in the morning at approximately the same time every day (˜8 am±2 hours). Animals were observed within their cages once daily throughout the study period. […] Any abnormal observation was reported to the Study Director. Ocular findings were scored according to a modified McDonald-Shadduck Scoring System. The scoring system 0=normal and numbers of 1-4 score mild to severe.
(Table 3). Thus, these ROCK inhibitors have promise for therapeutic use in treating eye pathologies.

[6] = test system: midbrain dopaminergic neurons; assay: MPTP mouse model; format: in vivo, C57BL/6 mice; conditions: 10 or 100 mg/kg per day in drinking water, 14 days
Description: Previous studies have shown that this compound causes the overactivation of the c-Abl non-receptor tyrosine kinase in these neurons, which then phosphorylates the Parkin E3 ubiquitin ligase leading to its inactivation (Ko et al., Proc. Nat. Acad. Sci. USA; 2010; 107:16691). Additionally, this neurotoxin is also known to cause the activation of Rho kinase (ROCK) in the brain when administered to animals (Rodriguez-Perez et al., Neurobiol. Dis., 2013; 58:209).
Different cohorts of adult C57BL/6 mice (Charles River; Wilmington, Mass.) (8 to 10 per group) receive intraperitoneal injections of either vehicle or 30 mg/kg of MPTP (Sigma; St. Louis, Mo.) dissolved in 0.9% saline for 5 consecutive days. This sub-acute/chronic treatment regimen typically leads to the death of 40 to 50% of midbrain dopaminergic neurons of the substantia nigra within 1 to 2 weeks (Meredith and Rademacher; J Parkinsons Dis.; 2011; 1(1):19).
The cohorts are carried forward for 14 days. On the final 2 days of the treatment paradigm, mouse cohorts are subjected to behavioral testing using the accelerated rotarod on one day or grid-walking test on the other day. At completion of the final behavioral test, animals are deeply anesthetized and then perfused transcardially with 4% paraformaldehyde in phosphate buffer. Brains are removed from the craniums and post-fixed for 1-2 hours. The brains are then immersed in 30% sucrose for cryo-protection. Whole coronal sections (20-25 μm thick) through the midbrain region containing the substantia nigra are obtained for each animal and thaw mounted onto SuperFost Plus slides (Thermo-Fisher). Individual sections are reacted with rabbit anti-tyrosine hydroxylase (TH) antibody (EMD-Millipore) overnight in PBS containing 0.05% Triton X-100 and 10% normal goat serum. After washing in PBS/Triton-X-100 multiple times, sections are reacted with […] goat anti-rabbit secondary antibody. Following another round of washing, the slides are reacted with Vecta Stain Elite ABC kit for DAB-enhanced peroxidase detection (Vector Labs; Burlingame, Calif.). Following peroxidase reaction, the sections are subjected to Nissl staining to label all cell types as a counterstain. The sections are then coverslipped in permanent mounting media.
Sections are examined by visible microscopy and photographic images captured. The number of TH positive neurons are estimated in the series of images by unbiased stereological analysis using Stereo Investigator. Numbers of TH-positive neurons per area of the substantia nigra are determined and statistical analyses performed to compare between, control untreated, MPTP/no treatment, MPTP/inhibitor treatments.

[7] = Day 3, 1% topical once daily, modified McDonald-Shadduck score, 0=normal, 1-4 mild to severe, cells = rabbit 1/2, OD/OS

T1 sequence (Q13464 whole entry): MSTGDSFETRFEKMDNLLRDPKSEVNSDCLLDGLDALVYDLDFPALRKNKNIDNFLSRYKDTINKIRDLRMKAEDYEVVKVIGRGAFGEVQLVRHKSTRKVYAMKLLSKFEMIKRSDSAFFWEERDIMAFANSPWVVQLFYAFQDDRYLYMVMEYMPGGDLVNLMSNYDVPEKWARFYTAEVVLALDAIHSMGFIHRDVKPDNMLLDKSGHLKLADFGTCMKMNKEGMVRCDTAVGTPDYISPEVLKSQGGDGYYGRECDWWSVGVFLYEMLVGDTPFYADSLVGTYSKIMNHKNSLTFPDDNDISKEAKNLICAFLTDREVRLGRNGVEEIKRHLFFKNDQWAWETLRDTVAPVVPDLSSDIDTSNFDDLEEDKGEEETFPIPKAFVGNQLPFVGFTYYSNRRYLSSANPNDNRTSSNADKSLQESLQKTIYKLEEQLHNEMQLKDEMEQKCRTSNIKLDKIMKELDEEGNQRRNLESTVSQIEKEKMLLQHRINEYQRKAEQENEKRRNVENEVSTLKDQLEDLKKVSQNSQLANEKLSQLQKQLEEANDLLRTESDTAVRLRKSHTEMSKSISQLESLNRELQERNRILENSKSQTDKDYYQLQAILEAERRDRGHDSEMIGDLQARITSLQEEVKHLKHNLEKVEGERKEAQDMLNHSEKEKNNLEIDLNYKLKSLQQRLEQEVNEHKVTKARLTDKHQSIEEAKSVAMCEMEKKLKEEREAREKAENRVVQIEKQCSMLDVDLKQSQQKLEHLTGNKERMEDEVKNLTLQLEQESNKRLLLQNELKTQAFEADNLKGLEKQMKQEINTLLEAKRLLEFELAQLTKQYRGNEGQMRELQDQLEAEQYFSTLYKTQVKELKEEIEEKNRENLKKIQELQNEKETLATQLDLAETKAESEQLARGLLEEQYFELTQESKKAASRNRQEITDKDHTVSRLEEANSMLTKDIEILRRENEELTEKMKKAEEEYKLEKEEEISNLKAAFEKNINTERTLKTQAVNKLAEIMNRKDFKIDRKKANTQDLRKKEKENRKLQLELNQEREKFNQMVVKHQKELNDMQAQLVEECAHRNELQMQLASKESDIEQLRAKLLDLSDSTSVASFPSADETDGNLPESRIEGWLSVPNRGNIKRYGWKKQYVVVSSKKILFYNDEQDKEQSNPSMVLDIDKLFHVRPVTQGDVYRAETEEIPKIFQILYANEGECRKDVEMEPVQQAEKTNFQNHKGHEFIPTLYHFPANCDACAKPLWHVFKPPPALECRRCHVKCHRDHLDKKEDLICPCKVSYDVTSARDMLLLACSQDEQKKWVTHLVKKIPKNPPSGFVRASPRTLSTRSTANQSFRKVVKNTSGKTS

In the case of `C[C@H](N)C1CCN(S(=O)(=O)c2cccc3cnccc23)CC1` [BA-1076], the IC50 (ROCK1 [1]; ATP at Km, 70 μM, * = higher purity BA-1076) is reported as 19.6 µM, the “ROCK1/ROCK2 (fold difference)” value (ROCK2 [2]) is reported as 55.5 and the “ROCK1/ROCK2 (fold difference)” value (ROCK2 [2]; listed as BA-1076*) is reported as 60.8. For the same compound, the “Inhibition of PKA” value (PKA) was “Neither compound inhibited PKA”, the IC50 (ROCK1 [3]) was 10 µM and the “Binding to Abl” value (Abl) was “a second kinome screen did not confirm significant binding of BA-1076 to Abl”. For the same compound, the IC50 (ROCK2 [4]; 10 μM ATP (below Km), * = preliminary) was 0.73 µM, the Fold-difference (ROCK2 [4]; ROCK1 vs ROCK2 IC50 at 10 μM ATP) was 14 and the “Aqueous Flare” value [5, 7] was 0. For the same compound, the “Cellular Flare” value [5, 7] was 0, the “Conjunctival Congestion” value [5, 7] was 0 and the “Conjunctival Discharge” value [5, 7] was 0. The “Conjunctival Swelling” value [5, 7] was 0, the Cornea [5, 7] was 0 and the “Iris Involvement” value [5, 7] was 0. The Pannus [5, 7] was 0, the “Pupillary Response” value [5, 7] was 0 and the “Surface Area of Cornea Involvement” value [5, 7] was 0. The “Hyperemia / adverse ocular findings” value ([5]; daily repeat topical dosing, 1%, three days) was “did not cause hyperemia”, the “Cell loss in substantia nigra” value [6] was “prevent a significant percentage of the cell loss” and the “Motor function in behavioral testing” value [6] was “improved motor function”.
With `C[C@H](N)C1CCN(S(=O)(=O)c2cccc3c(=O)[nH]ccc23)CC1` [BA-2057] the IC50 (ROCK1 [1]) was 23.6 µM, the IC50 (ROCK2 [2]) was 0.491 µM and the “ROCK1/ROCK2 (fold difference)” value (ROCK2 [2]) was 48.0. For the same compound, the “Cell loss in substantia nigra” value [6] was “prevent a significant percentage of the cell loss” and the “Motor function in behavioral testing” value [6] was “improved motor function”.
